Where two headings read alike, the source gives them in different places.
Columns and labels:
hOAT3 = hOAT3 (Homo sapiens, UniProt Q8TCC7); test: Inhibition of hOAT3-mediated uptake of 3H-ES in hOAT3-MDCK cells; format: cell-based
Source text: Considering the relative exposure characteristics, GA and PCA were selected as PK-marker and Q-marker components of PCE in previous studies ([Ma et al., 2015]; [Ma et al., 2016]; [Li et al., 2021b]). In this study, we investigated the concentration-dependent inhibitions of GA and PCA on multiple transporters, including OAT1, OAT3, OCT2, MDR1, and BCRP. Stably expressing cell lines of hOAT1-MDCK, hOAT3-MDCK, hOCT2-S2, hMDR1-MDCK, hBCRP-MDCK, and their mock cells were obtained from Japan Fuji Biomedical Co., Ltd. The cells were maintained in DMEM (Sigma) supplemented with 10% FCS, 1% non-essential amino acids (Sigma), and 2% L-glutamine. The medium for the Transwell® plates (Corning Costar, Cambridge, MA, United States) was supplemented with 0.1% gentamicin. Membrane filters were placed in a 12 mm well with 1.5 and 0.5 ml of culture medium in the basolateral and apical compartments, respectively. Cells were cultured at 37°C in an atmosphere of 5% CO2. The inhibition experiments were adapted from previous methods with minor modifications ([Li et al., 2021a]; [2021b]).
Briefly, the hOAT1-MDCK, hOAT3-MDCK, and hOCT2-S2 cells were trypsinized and suspended in the culture medium to provide a density of 1.5 × 10^5 cells/ml. After incubating for 48 h, the cells were washed twice with preheated DPBS and then pre-incubated with DPBS for 10 min at 37°C. 500 µl of DPBS containing probe substrates was added to initiate the uptake in the presence or absence of GA, PCA or positive inhibitors. The hMDR1-MDCK and hBCRP-MDCK cells were suspended at a density of 4.0 × 10^5 cells/ml. After cultivation for 7 days, cells were washed twice and equilibrated for 30 min at 37°C with the pre-warmed HBSS buffer. […] The radioactive intensity of ^14C-PAH, ^3H-ES, and ^14C-TEA was measured using a Tri-Carb 2910TR scintillator (PerkinElmer, United States). Fluorescence was measured at 485 nm (excitation) and 546 nm (emission) for rhodamine 123, and 425 nm (excitation) and 528 nm (emission) for lucifer yellow. IC50 values were determined by employing GraphPad Prism 9.

MDR1 mRNA = MDR1 mRNA expression in Caco-2 cells (qRT-PCR); format: cell-based; settings: 48 h pretreatment, bosentan 20 μM, GA 50 μM, PCA 50 μM, PCE 100 mg/ml
Protocol: (§1) After the incubation period, cells were harvested from the Transwell inserts for RNA extraction. […] Real-time quantitative PCR (qRT-PCR) was performed on an ABI Prism 7900HT Sequence Detection System (Applied Biosystems, Foster City, CA, United States) for the analysis of MDR1 and BCRP genes. Primers of housekeeping gene β-actin was used as internal controls. […] The relative gene expression levels were determined using the comparative CT method (ΔΔCT method). The cut-off CT was set at 35 cycles for all analyses. An arbitrary classification system was assigned to the data, designating relative expression levels >2 as high mRNA expression, levels between 2 and 1 as moderate mRNA expression, levels between 1 and 0.1 as low mRNA expression and levels <0.1 as unexpressed.

[1] = tested on: Staphylococcus aureus and Escherichia coli; parameters: method as in Fifere et al., 2022; settings: in vitro, especially that of levofloxacin; ref Fifere et al., 2022; cited from earlier work
BCRP mRNA = BCRP mRNA expression in Caco-2 cells (qRT-PCR); format: cell-based; settings: 48 h pretreatment, bosentan 20 μM, GA 50 μM, PCA 50 μM, PCE 100 mg/ml
Protocol: as §1

Caco-2 cells = test: Bidirectional transport of ciprofloxacin in Caco-2 cells; format: in vitro ADME; settings: GA 50 μM, PCA 50 μM, PCE 100 mg/ml, p < 0.05
Protocol: The Caco-2 cell lines were obtained from the National Collection of Authenticated Cell Cultures (NCACC, Shanghai, China). The bi-directional transport assay was performed on 12-mm Transwell Permeable Supports with 0.4 mm-pore polycarbonate membrane insert and 1.12 cm^2 growth areas. […] The cells were seeded at a density of 3×10^5 cells/well, incubated at 37°C and 5% CO2, and cultured for 21 days with replacement of cell culture medium supplemented with 1% penicillin-streptomycin every second day. Membrane filters were placed in a 12 mm well with 1.5 and 0.5 ml of culture medium in the basolateral and apical compartments, respectively. TEER was measured as an indication of an intact monolayer using a Millicell ERS voltohmmeter (Millipore, Merck). […] Aliquots of 50 μl were collected from the acceptor compartment at 0.5 h. The apparent permeability coefficient (P app) was calculated using the following formula: P app = (dC/dt) × V r/(A × C 0), where dC/dt is the alteration in concentration over time, V r is the volume of the receiver compartment, A is the area of the cell monolayer, and C 0 is the initial concentration in the donor compartment. The permeation of drug from the apical (A) to the basolateral (B) side of the cells (P app,A-B) is compared with the permeation in the opposite direction (P app,B-A).

Chain of hOAT3 (Q8TCC7 whole entry): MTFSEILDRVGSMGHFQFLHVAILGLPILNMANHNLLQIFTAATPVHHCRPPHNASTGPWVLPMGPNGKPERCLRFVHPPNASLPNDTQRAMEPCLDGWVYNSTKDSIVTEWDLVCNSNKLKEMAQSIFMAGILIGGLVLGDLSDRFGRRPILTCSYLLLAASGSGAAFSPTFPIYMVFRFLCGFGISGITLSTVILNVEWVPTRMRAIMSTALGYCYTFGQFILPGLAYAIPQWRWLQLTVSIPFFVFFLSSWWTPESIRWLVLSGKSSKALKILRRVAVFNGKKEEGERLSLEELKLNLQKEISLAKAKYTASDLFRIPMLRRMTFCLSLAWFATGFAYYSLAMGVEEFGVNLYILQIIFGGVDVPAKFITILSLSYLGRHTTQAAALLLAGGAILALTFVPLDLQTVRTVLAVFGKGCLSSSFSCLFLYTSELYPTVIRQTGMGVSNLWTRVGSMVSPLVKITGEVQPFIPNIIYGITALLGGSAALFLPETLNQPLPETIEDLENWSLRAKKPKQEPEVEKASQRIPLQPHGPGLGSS

O=C(O)c1cc(O)c(O)c(O)c1 [GA, Gallic acid]
IC50 (hOAT3): 62.3 µM

O=C(O)c1ccc(O)c(O)c1 [PCA, protocatechuic acid]
increase of MDR1 (P-gp) mRNA expression (MDR1 mRNA): 3.56 fold
increase of the antibacterial activity [1]: up to 50%
increase of BCRP mRNA expression (BCRP mRNA): 3.33 fold
change of net efflux ratio of CIP after co-treatment (Caco-2 cells): significant improvement
IC50 (hOAT3; hOAT3-MDCK cells, 3H-ES 0.05 µM, read-out: IC50, hOAT3): 152 µM

— publication PMC9640990 (Frontiers in Pharmacology, 2022)
